In US9896441B2 (Lycera Corporation, priority 2014, dated 2018):
“And” between values parts separate entries of the source, which are not always exact repeats. Equal entries are not always repeated.

Biological target: T1, RORγ-LBD (Homo sapiens, UniProt P51449)
T1 construct: made in house; host or cells: SF9 cells (baculovirus); used as diluted lysate
T1 sequence (P51449 269-508 limits assumed): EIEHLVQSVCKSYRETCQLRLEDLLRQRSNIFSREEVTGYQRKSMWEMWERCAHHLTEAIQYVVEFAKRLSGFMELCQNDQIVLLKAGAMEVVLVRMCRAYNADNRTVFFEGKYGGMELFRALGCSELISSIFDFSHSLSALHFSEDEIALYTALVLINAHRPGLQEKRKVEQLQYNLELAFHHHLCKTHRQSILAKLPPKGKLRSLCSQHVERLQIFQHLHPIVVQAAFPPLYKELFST
Test: RORγ-Ligand Binding Domain (LBD) TR-FRET Assay;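 as to TR-FRET Assay Max Response: 665/615 nm signal ratio set to 100 without ursolic acid or test compound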
Format: biochemical
Conditions: RORγ-LBD TR-FRET
Description: Assay procedures and results are described below.
HIS-tagged RORγ-LBD protein was expressed in SF9 cells using a baculovirus expression system. The lysate was diluted in assay buffer (50 mM Tris pH 7.0, 50 mM KCl, 1 mM EDTA, 0.1 mM DTT, 0.01% BSA) to obtain RORγ-LBD final concentration of ˜3 nM in a 384-well assay plate (need to titrate for each batch of protein).
A stock of biotinylated-LXXLL peptide from coactivator SRC1 (Biotin-[…]) was prepared in assay buffer and added to each well (200 nM final concentration). […] RORγ antagonist ursolic acid was also included at a final concentration of 2 μM. Compounds were diluted in DMSO and further diluted in assay buffer with a final DMSO concentration at 1%.

Row | EC50 | Compound
1 | 500 to 5000 nM | O=C(O)CC[C@H]1CN(S(=O)(=O)c2cccc(C(F)(F)F)c2)c2cc(/C=C/c3c(Cl)cc(Cl)cc3Cl)ccc2O1 [Example 89CL, (S,E)-3-(6-(2,4,6-trichlorostyryl)-4-((3-(trifluoromethyl)-phenyl)sulfonyl)-3,4-dihydro-2H-benzo[b][1,4]oxazin-2-yl)propanoic acid]
2 | < 500 nM | O=S(=O)(c1cccc(C(F)(F)F)c1)N1CCCc2cc(OCc3ccccc3)ccc21 [Example 25K, 6-(benzyloxy)-1-((3-(trifluoromethyl)phenyl)sulfonyl)-1,2,3,4-tetrahydroquinoline]
3 | < 500 nM | COc1cc(S(=O)(=O)N2CCCc3cc(OCc4c(F)cccc4Cl)ccc32)ccc1F [Example 25O, 6-((2-chloro-6-fluorobenzyl)oxy)-1-((4-fluoro-3-methoxyphenyl)sulfonyl)-1,2,3,4-tetrahydroquinoline]
4 | < 500 nM | Cc1nn(C(F)F)cc1S(=O)(=O)N1CC(CO)Cc2ccc(OCc3c(F)cccc3Cl)cc21 (centres unmarked) [Example 9D]
5 | < 500 nM | O=S(=O)(c1cccc(C(F)(F)F)c1)N1CCCc2cc(C3CC3)c(OCc3c(F)cccc3C3CC3)cc21 [Example 28C]
6 | 500 to 5000 nM | O=C(O)CC[C@H]1CN(S(=O)(=O)c2cccc(C(F)(F)F)c2)c2cc(/C=C/c3c(Cl)cc(OC(F)(F)F)cc3Cl)ccc2O1 [Example 89CN, (S,E)-3-(6-(2,6-dichloro-4-(trifluoromethoxy)styryl)-4-((3-(trifluoromethyl)phenyl)sulfonyl)-3,4-dihydro-2H-benzo[b][1,4]-oxazin-2-yl)propanoic acid]
7 | 500 to 5000 nM | COC(=O)CC[C@H]1CN(S(=O)(=O)c2cc(C(F)(F)F)cnc2OC(C)C)c2cc(/C=C/c3c(F)cccc3Cl)ccc2O1 [Example 89FL, methyl (S,E)-3-(6-(2-chloro-6-fluorostyryl)-4-((2-isopropoxy-5-(trifluoromethyl)pyridin-3-yl)sulfonyl)-3,4-dihydro-2H-benzo[b][1,4]oxazin-2-yl)propanoate]
8 | < 500 nM and 500 to 5000 nM | COC(=O)CC[C@H]1CN(S(=O)(=O)c2cccc(C(F)(F)F)c2)c2cc(/C=C/c3cccn4ccnc34)ccc2O1 [Example 89DE, methyl (S,E)-3-(6-(2-(imidazo[1,2-a]pyridin-8-yl)vinyl)-4-((3-(trifluoromethyl)-phenyl)sulfonyl)-3,4-dihydro-2H-benzo[b][1,4]oxazin-2-yl)propanoate]
9 | < 500 nM | O=S(=O)(c1cccc(C(F)(F)F)c1)N1CCCc2cc(OC3CCCCC3)ccc21 [Example 25L, 6-(cyclohexyloxy)-1-((3-(trifluoromethyl)phenyl)sulfonyl)-1,2,3,4-tetrahydroquinoline]
10 | < 500 nM | COc1cc(S(=O)(=O)N2c3cc(OCc4c(F)cccc4Cl)ccc3C[C@@H](C(=O)O)[C@H]2C)ccc1F (racemic) [Example 21, (2R,3R)-7-((2-Chloro-6-fluorobenzyl)oxy)-1-((4-fluoro-3-methoxyphenyl)sulfonyl)-2-methyl-1,2,3,4-tetrahydroquinoline-3-carboxylic acid]
11 | 5000 to 10000 nM | Cn1ccnc1/C=C/c1ccc2c(c1)N(S(=O)(=O)c1cccc(C(F)(F)F)c1)C[C@H](CCC(=O)O)O2 [Example 89BU, (S,E)-3-(6-(2-(1-methyl-1H-imidazol-2-yl)vinyl)-4-((3-(trifluoromethyl)phenyl)sulfonyl)-3,4-dihydro-2H-benzo[b][1,4]-oxazin-2-yl)propanoic acid]
12 | < 500 nM | Cc1cc2c(cc1OCc1c(F)cccc1Cl)N(S(=O)(=O)c1cccc(C(F)(F)F)c1)CCC2 [Example 28D]
13 | < 500 nM | COc1cc(S(=O)(=O)N2CCCc3ccc(OCc4c(Cl)cccc4C4CC4)cc32)ccc1F [Example 25S, 7-((2-chloro-6-cyclopropylbenzyl)oxy)-1-((4-fluoro-3-methoxyphenyl)sulfonyl)-1,2,3,4-tetrahydroquinoline]
14 | < 500 nM | O=S(=O)(c1cccc(C(F)(F)F)c1)N1CCCc2cc(C3CC3)c(OCc3c(F)cccc3Cl)cc21 [Example 28B]
15 | < 500 nM | COc1cc(S(=O)(=O)N2CCCc3ccc(O[C@@H]4c5ccccc5C[C@@H]4C)cc32)ccc1F (relative stereo) [Example 25D, 1-((4-fluoro-3-methoxyphenyl)sulfonyl)-7-(((cis)-2-methyl-2,3-dihydro-1H-inden-1-yl)oxy)-1,2,3,4-tetrahydroquinoline]
16 | > 10000 nM | O=C(O)CC[C@H]1CN(S(=O)(=O)c2cccc(OC(F)F)c2)c2cc(/C=C/c3nccnc3Cl)ccc2O1 [Example 89DS, (S,E)-3-(6-(2-(3-chloropyrazin-2-yl)vinyl)-4-((3-(difluoromethoxy)phenyl)sulfonyl)-3,4-dihydro-2H-benzo[b][1,4]-oxazin-2-yl)propanoic acid]

Same assay, conditions: RORγ-LBD TR-FRET assay

Row | EC50 | Compound
17 | < 500 nM | CCOC(=O)C(C)(C)CC1CC(S(=O)(=O)c2cccc(C(F)(F)F)c2)c2cc(OCc3c(F)cccc3Cl)ccc2O1 (centres unmarked) [Example 186D, ethyl 3-(6-((2-chloro-6-fluorobenzyl)oxy)-4-((3-(trifluoromethyl)phenyl)-sulfonyl)chroman-2-yl)-2,2-dimethylpropanoate]
18 | < 500 nM | CCOC(=O)C(C)(C)CC1CC(S(=O)(=O)c2ccc(F)c(OC)c2)c2cc(OCc3c(F)cccc3Cl)ccc2O1 (centres unmarked) [Example 185, Ethyl 3-(6-((2-chloro-6-fluorobenzyl)oxy)-4-((4-fluoro-3-methoxyphenyl)sulfonyl)chroman-2-yl)-2,2-dimethylpropanoate]
19 | 500 to 5000 nM | C[C@@H]1[C@H](NC(=O)Nc2ccccn2)Cc2ccc(/C=C/c3c(F)cccc3C(F)(F)F)cc2N1S(=O)(=O)c1cccc(C(F)(F)F)c1 [Example 116M, 1-((2R,3R)-7-((E)-2-fluoro-6-(trifluoromethyl)styryl)-2-methyl-1-((3-(trifluoro-methyl)phenyl)sulfonyl)-1,2,3,4-tetrahydroquinolin-3-yl)-3-(pyridin-2-yl)urea]
20 | < 500 nM | CNC(=O)N[C@@H]1Cc2ccc(/C=C(\C)c3c(F)cccc3Cl)cc2N(S(=O)(=O)c2cccc(C(F)(F)F)c2)[C@@H]1C [Example 145, 1-((2R,3R)-7-((E)-2-(2-Chloro-6-fluorophenyl)prop-1-en-1-yl)-2-methyl-1-((3-(trifluoromethyl)phenyl)sulfonyl)-1,2,3,4-tetrahydroquinolin-3-yl)-3-methylurea]
21 | > 10000 nM | C/C(=C\c1ccc2c(c1)CC(CC(=O)O)CN2S(=O)(=O)c1cccc(C(F)(F)F)c1)c1c(F)cccc1Cl (centres unmarked) [Example 150, (E)-2-(6-(2-(2-Chloro-6-fluorophenyl)prop-1-en-1-yl)-1-((3-(trifluoromethyl)phenyl)sulfonyl)-1,2,3,4-tetrahydroquinolin-3-yl)acetic acid]

Same assay, conditions: RORγ-LBD TR-FRET assay, maximum response

Row | Compound | TR-FRET Assay Max Response
22 | CCOC(=O)C(C)(C)CC1CC(S(=O)(=O)c2cccc(C(F)(F)F)c2)c2cc(OCc3c(F)cccc3Cl)ccc2O1 (centres unmarked) [Example 186D, ethyl 3-(6-((2-chloro-6-fluorobenzyl)oxy)-4-((3-(trifluoromethyl)phenyl)-sulfonyl)chroman-2-yl)-2,2-dimethylpropanoate] | *** (a value in the range of greater than 150 to 200)
23 | CCOC(=O)C(C)(C)CC1CC(S(=O)(=O)c2ccc(F)c(OC)c2)c2cc(OCc3c(F)cccc3Cl)ccc2O1 (centres unmarked) [Example 185, Ethyl 3-(6-((2-chloro-6-fluorobenzyl)oxy)-4-((4-fluoro-3-methoxyphenyl)sulfonyl)chroman-2-yl)-2,2-dimethylpropanoate] | ** (a value in the range of greater than 90 to 150)
24 | C[C@@H]1[C@H](NC(=O)Nc2ccccn2)Cc2ccc(/C=C/c3c(F)cccc3C(F)(F)F)cc2N1S(=O)(=O)c1cccc(C(F)(F)F)c1 [Example 116M, 1-((2R,3R)-7-((E)-2-fluoro-6-(trifluoromethyl)styryl)-2-methyl-1-((3-(trifluoro-methyl)phenyl)sulfonyl)-1,2,3,4-tetrahydroquinolin-3-yl)-3-(pyridin-2-yl)urea] | *** (a value in the range of greater than 150 to 200)
25 | CNC(=O)N[C@@H]1Cc2ccc(/C=C(\C)c3c(F)cccc3Cl)cc2N(S(=O)(=O)c2cccc(C(F)(F)F)c2)[C@@H]1C [Example 145, 1-((2R,3R)-7-((E)-2-(2-Chloro-6-fluorophenyl)prop-1-en-1-yl)-2-methyl-1-((3-(trifluoromethyl)phenyl)sulfonyl)-1,2,3,4-tetrahydroquinolin-3-yl)-3-methylurea] | ** (a value in the range of greater than 90 to 150)

Same assay, conditions: with 2 μM ursolic acid (RORγ antagonist); highest test concentration 10 μM

Row | EC50 | Compound
26 | < 500 nM | COC(=O)C[C@H]1CN(S(=O)(=O)c2cccc(C(F)(F)F)c2)c2cc(NCc3c(F)cccc3Cl)ccc2O1
27 | < 500 nM | O=C(O)C1Cc2ccc(OCc3c(F)cccc3C(F)(F)F)cc2N(S(=O)(=O)c2cccc(C(F)(F)F)c2)C1 (centres unmarked)
28 | < 500 nM | COc1cc(S(=O)(=O)N2CC(C(=O)O)Cc3ccc(OCc4c(F)cccc4Cl)cc32)ccc1F (centres unmarked)
29 | < 500 nM | COC(=O)CCC[C@H]1CN(S(=O)(=O)c2cccc(C(F)(F)F)c2)c2cc(/C=C(\C)c3c(F)cccc3Cl)ccc2O1 [Example 195H, methyl (S,E)-4-(6-(2-(2-chloro-6-fluorophenyl)prop-1-en-1-yl)-4-((3-(trifluoromethyl)phenyl)-sulfonyl)-3,4-dihydro-2H-benzo[b][1,4]oxazin-2-yl)butanoate]
30 | < 500 nM | C/C(=C\c1ccc2c(c1)N(S(=O)(=O)c1cccc(C(F)(F)F)c1)C[C@H](CCCC(=O)O)O2)c1c(F)cccc1Cl [Example 195G, (S,E)-4-(6-(2-(2-chloro-6-fluorophenyl)prop-1-en-1-yl)-4-((3-(trifluoromethyl)phenyl)-sulfonyl)-3,4-dihydro-2H-benzo[b][1,4]oxazin-2-yl)butanoic acid]
31 | < 500 nM | CCn1cc(S(=O)(=O)N2C[C@H](CNC(C)=O)Nc3ccc(NCc4c(F)cccc4Cl)cc32)c(Cl)n1
32 | 500 to 5000 nM | Cc1nn(C(F)F)cc1S(=O)(=O)N1CC(C(=O)O)Cc2ccc(OCc3c(F)cccc3Cl)cc21 (centres unmarked)
33 | < 500 nM | CCOc1nn(CC)cc1S(=O)(=O)N1CC(CO)Cc2ccc(OCc3c(F)cccc3Cl)cc21 (centres unmarked)
34 | < 500 nM | CCn1cc(S(=O)(=O)N2CC(C(=O)O)Oc3ccc(OCc4c(F)cccc4Cl)cc32)c(Cl)n1 (centres unmarked)
35 | < 500 nM | O=C(O)C1Cc2ccc(OCc3ccccc3F)cc2N(S(=O)(=O)c2cccc(C(F)(F)F)c2)C1 (centres unmarked)
36 | < 500 nM | O=C(O)C1Cc2ccc(OCc3cc(F)ccc3Cl)cc2N(S(=O)(=O)c2cccc(C(F)(F)F)c2)C1 (centres unmarked)
37 | > 10000 nM | O=C(O)C1Cc2ccc(OCc3ccc4ccccc4c3)cc2N(S(=O)(=O)c2cccc(C(F)(F)F)c2)C1 (centres unmarked)
38 | < 500 nM | CC(=O)NC[C@H]1CN(S(=O)(=O)c2cccc(C(F)(F)F)c2)c2cc(NCc3c(F)cccc3Cl)ccc2O1
